One test addresses T1, Prothrombin (FII) (Homo sapiens, UniProt P00734).
T1 construct: gene F2; zymogen prothrombin; source and preparation only in supplement
The test is described as follows: surface plasmon resonance, lipid in nanodiscs, steady state. It is filed as binding. Particulars: read-out: Kd (μM) / 40% PS 60% PC. From the text:
surface plasmon resonance, lipid in nanodiscs, steady state on Prothrombin (FII)
(In general: In SPR one partner is held on a chip, and binding of the other changes the refractive index at the surface.)

In a further test the target is T2, Factor X (FX) (Homo sapiens, UniProt P00742).
T2 construct: gene F10; zymogen factor X, two-chain; source and preparation only in supplement; with Coagulation factor X (factor X heavy chain)
T2 sequence (P00742 41-179): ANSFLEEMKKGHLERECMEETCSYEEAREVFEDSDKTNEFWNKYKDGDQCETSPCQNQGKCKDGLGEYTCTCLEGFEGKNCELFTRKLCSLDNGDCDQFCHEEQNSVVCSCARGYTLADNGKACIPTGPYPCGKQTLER
T2 sequence (P00742 183-488): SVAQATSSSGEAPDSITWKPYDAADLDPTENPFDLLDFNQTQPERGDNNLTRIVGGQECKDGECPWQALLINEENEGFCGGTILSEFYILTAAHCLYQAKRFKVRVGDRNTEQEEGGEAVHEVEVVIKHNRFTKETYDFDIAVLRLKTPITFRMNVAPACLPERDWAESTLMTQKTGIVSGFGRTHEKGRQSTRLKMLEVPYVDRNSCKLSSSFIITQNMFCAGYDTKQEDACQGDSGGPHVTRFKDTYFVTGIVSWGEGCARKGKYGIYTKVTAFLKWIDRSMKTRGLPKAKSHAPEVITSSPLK
The description is as above. The test is classed as binding. The following applies: read-out: Kd (μM) / 40% PS 60% PC. From the text: surface plasmon resonance, lipid in nanodiscs, steady state on Factor X (FX)

We go through 1 compound from PMC10809103, “Phosphatidylthreonine is a procoagulant lipid detected in human blood and elevated in coronary artery disease” (Journal of lipid research, 2023).

With `CCCCCCCC/C=C\CCCCCCCC(=O)O[C@H](COC(=O)CCCCCCCCCCCCCCC)COP(=O)(O)OC[C@H](N)C(=O)O` [PS 16:0/18:1(9Z)], the Kd on Prothrombin (FII) worked out at 6.23 ± 0.921 µM; on Factor X (FX), 1.33 ± 0.191 µM.
